Measurements reported in patent US20230416692A1 (BOARD OF REGENTS, THE UNIVERSITY OF TEXAS SYSTEM, priority 2020, published 2023).
Values joined by “and” are separate entries in the source; they are usually repeats but may differ in a detail not shown here. Equal entries are not always repeated. Where two headings read alike, the source gives them in different places.

Tests used:
SARS-CoV-2-Nluc = test: microbe, parasite or virus in culture; format: cell-based
plasma protein = settings: data from literature; cited from earlier work
[1] = human exposures in the clinics, cited from earlier work; for Cmax: read-out: Exposure (μM): Cmax
[2] = Severe acute respiratory syndrome coronavirus 2, 48 h
[3] = Severe acute respiratory syndrome coronavirus 2

Row | Compound | EC50 (SARS-CoV-2-Nluc; [2]) [µM] | CC50 (A549-hACE2 cells; human) [µM] | other results
1 | Nc1ccn([C@@H]2O[C@@](CO)(CCl)[C@@H](O)[C@H]2F)c(=O)n1 [ALS-8112] | > 10 | > 50 | 
2 | CC(C)CN(C[C@@H](O)[C@H](Cc1ccccc1)NC(=O)O[C@H]1CCOC1)S(=O)(=O)c1ccc(N)cc1 [Amprenavir] | > 10 | > 50 | activity against SARS-CoV-2-Nluc (in words) (SARS-CoV-2-Nluc): inactive; Plasma protein binding (%) (plasma protein): 90%
3 | COC(=O)N[C@H](C(=O)N[C@@H](Cc1ccccc1)[C@@H](O)CN(Cc1ccc(-c2ccccn2)cc1)NC(=O)[C@@H](NC(=O)OC)C(C)(C)C)C(C)(C)C [Atazanavir] | > 10 | > 50 | activity against SARS-CoV-2-Nluc (in words) (SARS-CoV-2-Nluc): inactive; Plasma protein binding (%) (plasma protein): 86%
4 | O=C1c2c(O)c(=O)ccn2N([C@@H]2c3ccccc3SCc3c2ccc(F)c3F)[C@@H]2COCCN12 [Baloxavir] | > 10 | 47 ± 1.3 | 
5 | O=C(NCc1c(F)cc(F)cc1F)c1cn2c(c(O)c1=O)C(=O)N1[C@H]3CC[C@H](C3)O[C@@H]1C2 [Bictegravir] | > 10 | > 50 | Plasma protein binding (%) (plasma protein): >99%
6 | Nc1ccn(C[C@@H](CO)OCP(=O)(O)O)c(=O)n1 [Cidofovir] | > 10 | > 50 | 
7 | CC(C)c1nc(CN(C)C(=O)N[C@@H](CCN2CCOCC2)C(=O)N[C@H](CC[C@H](Cc2ccccc2)NC(=O)OCc2cncs2)Cc2ccccc2)cs1 [Cobicistat] |  | 47.3 ± 2.5 | SI (selectivity index) (SARS-CoV-2-Nluc): 17.3; EC50 (SARS-CoV-2-Nluc; [3]): 0.77 to 2.74 µM
8 | CC(C)CN(C[C@@H](O)[C@H](Cc1ccccc1)NC(=O)O[C@H]1CO[C@H]2OCC[C@H]21)S(=O)(=O)c1ccc(N)cc1 [Darunavir] | > 10 | > 50 | activity against SARS-CoV-2-Nluc (in words) (SARS-CoV-2-Nluc): inactive
9 | O=C1Nc2ccc(Cl)cc2[C@@](C#CC2CC2)(C(F)(F)F)O1 [Efavirenz] | > 9.6 | 37.6 ± 10.7 | SI (selectivity index) (SARS-CoV-2-Nluc): <3.9; Exposure (μM): Cmin [1]: 5.6 µM; Cmax [1]: 12.9 µM; Plasma protein binding (%) (plasma protein): 99.5-99.8%
10 | Nc1nc(=O)n([C@@H]2CS[C@H](CO)O2)cc1F [Emtricitabine] | > 10 | > 50 | activity against SARS-CoV-2-Nluc (in words) (SARS-CoV-2-Nluc): inactive; Cmax [1]: 7.9 µM; Plasma protein binding (%) (plasma protein): 4%
11 | C=C1[C@H](CO)[C@@H](O)C[C@@H]1n1cnc2c(=O)[nH]c(N)nc21 [Entecavir] | > 10 | > 50 | 
12 | NC(=O)c1nc(F)c[nH]c1=O [Favipiravir] | > 10 | > 50 | 
13 | CC(C)OC(=O)[C@H](C)N[P@+]([O-])(OC[C@H]1O[C@@](C#N)(c2ccc3c(N)ncnn23)[C@](C)(O)[C@@H]1OC(=O)C(C)C)Oc1ccccc1 [GS-6620] |  |  | EC50 (SARS-CoV-2-Nluc; read-out: EC50): > 10 µM; CC50 (A549-hACE2 cells): > 50 µM
14 | COc1ccc2c(O[C@@H]3C[C@H]4C(=O)N[C@]5(P(=O)(O)Cc6c(F)cccc6F)C[C@H]5CCCCCCC[C@H](NC(=O)OC5CCCC5)C(=O)N4C3)cc(-c3csc(NC(C)C)n3)nc2c1Cl [GS-9256] |  |  | EC50 (SARS-CoV-2-Nluc; read-out: EC50): > 10 µM; CC50 (A549-hACE2 cells): 31.8 ± 10.9 µM
15 | CC[C@@H]1C[C@]1(NC(=O)[C@@H]1C[C@@H](Oc2cc(-c3csc(NC(C)C)n3)nc3c(Cl)c(OCCN4CCOCC4)ccc23)CN1C(=O)[C@@H](NC(=O)O[C@@H]1C[C@@H]2C[C@@H]2C1)C(C)(C)C)C(=O)O [GS-9451] |  |  | EC50 (SARS-CoV-2-Nluc; read-out: EC50): > 10 µM; CC50 (A549-hACE2 cells): > 50 µM
16 | C=CC(=O)N1CCC[C@@H](n2nc(-c3ccc(Oc4ccccc4)cc3)c3c(N)ncnc32)C1 [Ibrutinib] | > 10 | > 50 | 
17 | CC(C)(C)NC(=O)[C@@H]1CN(Cc2cccnc2)CCN1C[C@@H](O)C[C@@H](Cc1ccccc1)C(=O)N[C@H]1c2ccccc2C[C@H]1O [Indinavir] | > 10 | > 50 | activity against SARS-CoV-2-Nluc (in words) (SARS-CoV-2-Nluc): inactive
18 | COC(=O)N[C@H](C(=O)N1CC2(CC2)C[C@H]1c1ncc(-c2ccc3c(c2)C(F)(F)c2cc(-c4ccc5nc([C@@H]6[C@H]7CC[C@H](C7)N6C(=O)[C@@H](NC(=O)OC)C(C)C)[nH]c5c4)ccc2-3)[nH]1)C(C)C [Ledapisvir] | > 10 | > 50 | activity against SARS-CoV-2-Nluc (in words) (SARS-CoV-2-Nluc): inactive
19 | Cc1cccc(C)c1OCC(=O)N[C@@H](Cc1ccccc1)[C@@H](O)C[C@H](Cc1ccccc1)NC(=O)[C@H](C(C)C)N1CCCNC1=O [Lopinavir] | 8 to 9 | 31.5 ± 2.5 | EC50 (SARS-CoV-2-Nluc): 9 ± 0.42 µM; Plasma protein binding (%) (plasma protein): 98-99%

Row | Compound | EC50 (SARS-CoV-2-Nluc; [2]) [µM] | CC50 (A549-hACE2 cells; human) [µM] | other results
20 | C[C@@]1(O)[C@H](O)[C@@H](CO)O[C@H]1n1ccc2c(N)ncnc21 [MK-0608] |  |  | EC50 (SARS-CoV-2-Nluc; read-out: EC50): > 10 µM; CC50 (A549-hACE2 cells): > 50 µM
21 | Cc1c(O)cccc1C(=O)N[C@@H](CSc1ccccc1)[C@H](O)CN1C[C@H]2CCCC[C@H]2C[C@H]1C(=O)NC(C)(C)C [Nelfinavir] | 0.77 to 2.74 | 12 ± 1.3 | EC50 (SARS-CoV-2-Nluc): 0.77 µM; SI (selectivity index) (SARS-CoV-2-Nluc): 16 and 15.7; EC50 (SARS-CoV-2-Nluc; [3]): 0.77 to 2.74 µM; Exposure (μM): Cmin [1]: 2.6 µM; Cmax [1]: 8.3 µM; Plasma protein binding (%) (plasma protein): >98%
22 | O=C(Nc1ccc([N+](=O)[O-])cc1Cl)c1cc(Cl)ccc1O [Niclosamide] | 0.715 | 1.28 ± 0.23 | SI (selectivity index) (SARS-CoV-2-Nluc): 1.8
23 | CC(C)[C@@]1(C(=O)N[C@H]2CC(=O)O[C@]2(O)CF)CC(c2nccc3ccccc23)=NO1 [Nivocasan] |  |  | activity against SARS-CoV-2-Nluc (in words) (SARS-CoV-2-Nluc): inactive; EC50 (SARS-CoV-2-Nluc; read-out: EC50): > 10 µM; CC50 (A549-hACE2 cells): > 50 µM
24 | CCC(CC)O[C@@H]1C=C(C(=O)O)C[C@H](N)[C@H]1NC(C)=O [Oseltamivir carboxylate] | > 10 | > 50 | 
25 | CCOc1nc(N)nc2c1ncn2[C@@H]1O[C@@H]2COP(=O)(OC(C)C)O[C@H]2[C@@]1(C)F (stereo partly drawn) [PSI-352938] | > 10 | > 50 | 
26 | Cc1cn2nc([C@@H]3CCCCN3C(=O)c3cc(Cl)ccc3NS(C)(=O)=O)cc2nc1N1CC[C@H](N)C1 [Presatovir] | 2.53 |  | 
27 | CC1=CC[C@H](C(=O)N(c2cc(C#CC(C)(C)C)sc2C(=O)O)[C@H]2CC[C@](O)(CO[C@H]3CCOC3)CC2)CC1 [Radalbuvir] | > 10 | > 50 | 
28 | NC(=O)c1ncn([C@@H]2O[C@H](CO)[C@@H](O)[C@H]2O)n1 [Ribavirin] | > 10 | > 50 | 
29 | Cc1cc(/C=C/C#N)cc(C)c1Nc1ccnc(Nc2ccc(C#N)cc2)n1 [Rilpivirine] | 7.8 ± 1.04 | 14.6 ± 1.6 | Exposure (μM): Cmin [1]: 0.30 µM; Cmax [1]: 0.83 µM; Plasma protein binding (%) (plasma protein): 99.7%
30 | CC(C)c1nc(CN(C)C(=O)N[C@H](C(=O)N[C@@H](Cc2ccccc2)C[C@H](O)[C@H](Cc2ccccc2)NC(=O)OCc2cncs2)C(C)C)cs1 [Ritonavir] | > 10 |  | activity against SARS-CoV-2-Nluc (in words) (SARS-CoV-2-Nluc): inactive
31 | Nc1ncnc2c1ncn2[C@@H]1O[C@H](OCP(=O)(O)O)C=C1F [Rovafovir] |  |  | EC50 (SARS-CoV-2-Nluc; read-out: EC50): > 10 µM; CC50 (A549-hACE2 cells): > 50 µM; Plasma protein binding (%) (plasma protein): 58%
32 | CCOC(=O)/C=C/[C@H](C[C@@H]1CCNC1=O)NC(=O)[C@@H](CC(=O)[C@@H](NC(=O)c1cc(C)on1)C(C)C)Cc1ccc(F)cc1 [Rupintrivir] |  | > 50 | EC50 (SARS-CoV-2-Nluc): 1.87 ± 0.47 µM; SI (selectivity index) (SARS-CoV-2-Nluc): >26.7; EC50 (SARS-CoV-2-Nluc; [3]): 0.77 to 2.74 µM
33 | CC(C)(C)NC(=O)[C@@H]1C[C@@H]2CCCC[C@@H]2CN1C[C@@H](O)[C@H](Cc1ccccc1)NC(=O)[C@H](CC(N)=O)NC(=O)c1ccc2ccccc2n1 [Saquinavir] | 8 to 9 | 35.1 ± 11.7 | EC50 (SARS-CoV-2-Nluc): 8.95 ± 0.31 µM; SI (selectivity index) (SARS-CoV-2-Nluc): 3.9; Exposure (μM): Cmin [1]: 0.65 µM; Cmax [1]: 3.7 µM; Plasma protein binding (%) (plasma protein): 98%
34 | CC(C)OC(=O)[C@H](C)N[P@](=O)(OC[C@H]1O[C@@H](n2ccc(=O)[nH]c2=O)[C@](C)(F)[C@@H]1O)Oc1ccccc1 [Sofosbuvir] | > 10 | > 50 | activity against SARS-CoV-2-Nluc (in words) (SARS-CoV-2-Nluc): inactive
35 | Fc1ccccc1-c1nc2ccn(Cc3ccc(-c4ccc(C(F)(F)F)cc4C(F)(F)F)nn3)cc-2n1 [Tegobuvir] | > 10 | 17.9 ± 3.1 | 
36 | CC#CC(=O)N1CC[C@@H](n2c(=O)n(-c3ccc(Oc4ccccc4)cc3)c3c(N)ncnc32)C1 [Tirabrutinib] | > 10 | > 50 | 
37 | COC[C@H]1C[C@@H](c2ncc(-c3ccc4c(c3)COc3cc5c(ccc6nc([C@@H]7CC[C@H](C)N7C(=O)[C@@H](NC(=O)OC)C(C)C)[nH]c65)cc3-4)[nH]2)N(C(=O)[C@H](NC(=O)OC)c2ccccc2)C1 [Velpatasvir] | > 10 | > 50 | activity against SARS-CoV-2-Nluc (in words) (SARS-CoV-2-Nluc): inactive
38 | Voxilaprevir |  |  | EC50 (SARS-CoV-2-Nluc; read-out: EC50): > 10 µM; CC50 (A549-hACE2 cells): 16 ± 1.2 µM
